{"source": "patent USRE32534E", "about": "“Peptides, process for preparing the same and psychodepressant compositions containing the same” (Amano Pharmaceutical Co., Ltd., priority 1982, dated 1987)", "type_in_all_cases": "in vivo", "key": {"[1]": {"test_system": "male Wister rats", "assay": "Effect on yawning behavior induced by apomorphine", "conditions": "s.c.", "protocol": "Effect on yawning behavior\nMale Wister rats (weighing 200 to 300 g) were used, with 10 rats in each group. The rat was placed into a plastics cage (17×24×12 cm) with a floor mat and was then habituated for 30 minutes. Peptide A, peptide B, CCK-8 or the above-mentioned diluent serving as a control was subcutaneously given to the animal. Thirty minutes thereafter, 0.03 mg/kg of apomorphine was subcutaneously given to the animal. The number of yawns induced by apomorphine was counted during a period of 30 minutes following administration of apomorphine. The test was conducted in a soundproof compartment for each animal. Wilcoxon rank-sum test was resorted to for statistical treatment."}, "[2]": {"assay": "Induction of yawning behavior by the peptide itself", "conditions": "yawning thought to be induced by a reduction in the amount of dopamine"}, "[3]": {"test_system": "test animals", "assay": "Induction of catalepsy in test animals"}, "[4]": {"test_system": "Male ddy mice", "assay": "Effect on hyperlocomotion induced by thyrotropin releasing hormone (TRH)", "conditions": "s.c.", "protocol": "Effect on hyperlocomotion induced by thyrotropin releasing hormone (TRH)\nMale ddy mice (weighing 18 to 24.5 g) were used. The mice were placed into a transparent acrylic resin cage (26×37×11 cm) installed on Animex meter. Before experiment, the mice were allowed to habituate for 2 hours in the cage to fully lower the activity of the mice. After the completion of habituation, peptide A, peptide B or a diluent (physiological saline containing 1 mg/ml of sodium hydrogencarbonate) serving as a control was subcutaneously given to the mice. Thirty minutes thereafter, 5 mg/kg of TRH was intraperitoneally given to the animals. The activity counts during the period of 60 minutes following the administration of TRH was measured. Student's t-test was resorted to for statistical treatment."}, "[5]": {"test_system": "male Wister rats", "assay": "Effect on metabolism of amine in the brain", "conditions": "1 mg/kg s.c., 1 hour after dosing", "protocol": "Effect on metabolism of amine in the brain\nUnfasted male Wister rats (weighing 180 to 220 g) were used. Peptide A or peptide B was subcutaneously given to the animal at a dose of 1 mg/kg, the head was irradiated with microwave 1 hour thereafter, and amine metabolite was extracted from the brain. First, removed tissues were homogenized with 1M formic acid and centrifuged at 20,000×g for 20 minutes, and the supernatant (1 ml) was shaken with 5 ml of ethyl acetate. The 3,4-dihydroxyphenylacetic acid (DOPAC), homovanillic acid (HVA) and 5-hydroxyindoleacetic acid (5-HIAA) in the ethyl acetate layer were analyzed by high-performance liquid chromatography under the following conditions. Chemcosorb, 5-ODS, 20 cm×4.6 mm I.D. was used for a separating column, and a mobile phase (0.1M KH2 PO4 (pH 5.0)-5 mM EDTA-2Na-5% acetonitrile) was passed through the column at a flow rate of 1 ml/min. The electrochemical detector was set to an oxidation potential of +0.8 V."}, "[6]": {"test_system": "male Wister rats", "assay": "Effect on the fixed ratio responding in rats (FR20)", "conditions": "s.c., 15 min before a 20 min session, dose giving count 50 with control as 100", "protocol": "Effect on the fixed ratio responding in rats\nThe test was conducted according to the method described in Ahlenius S. and Engel J., Eur. J. Pharm., Vol. 15, 187-192 (1971).\nMale Wister rats (weighing 240 to 320 g) were placed into Skinner box (product of Bil-Medika Co., Ltd., Japan, adapted to give a feed when a lever within the box is pressed) and made to learn how to take the food. In this test, one feed was given to the rats when the lever was pressed 20 times, i.e., fixed ratio (FR) 20. The rats showing stable FR20 response were divided into groups each including four rats.\nPhysiological saline (containing 1 mM of sodium hydrogencarbonate) containing a specified amount of a test compound was subcutaneously given to the rats of one group in a volume of 0.1 ml/100 g. (Physiological saline containing the above-mentioned amount of sodium hydrogencarbonate only was given to the control group). Fifteen minutes after the administration, the test animals were placed in the Skinner box, and the number of times the animals took the feed for 20 minutes was counted. The dose at which the count gained by the group of animals was 50, namely, ED50 value, was determined, with the count gained by the control group calculated as 100. The same procedure as above was repeated with use of the other test compounds."}, "[7]": {"test_system": "Male ICR mice", "assay": "Inhibitory effect on hyperlocomotion induced by administration of methylphenidate", "conditions": "s.c. with methylphenidate 10 mg/kg s.c., 1 hour after administration, 50 with control as 100", "protocol": "Inhibitory effect on hyperlocomotion induced by administration of methylphenidate\nMale ICR mice (weighing 24 to 30 g) were divided into groups, each including 10 mice. To one group of mice were subcutaneously given 10 mg/kg of methylphenidate and 0.1 ml/10 g of a saline solution of a specified amount of a test compound and 1 mM of sodium hydrogencarbonate. One hour after the administration, the test animals were checked for hyperlocomotion, which was measured with use of a device for measuring locomotion of small animals (wherein the motion of an animal shifts the center of graavity of the device to actuate a microswitch for the measurement of the amount of motion, see Folia Pharmacologica Japonica, 74, 629-639 (1978). For a control group, the same procedure as above was repeated except that the saline solution given was free from any test compound. The concentration of the test compound at which the result achieved by the group of animals was 50, namely, ED50 value, was determined, with the measurement obtained by the control group calculated as 100. The other compounds were tested in the same manner as above."}, "[8]": {"test_system": "Male ddy mice", "assay": "Effect on climbing behavior induced by apomorphine (Pharmacological Test 7)", "conditions": "control 9.8 ± 0.7", "protocol": "Effect on climbing behavior induced by apomorphine\nMale ddy mice (weighing 20 to 30 g) were used, with 10 mice in each group. Each mouse was placed into a cylindrical cage, 12 cm in diameter and 14 cm in height, made up of vertical rods of 2 mm in diameter spaced apart at a distance of 10 mm in a circular arrangement. The mouse was allowed to stand therein for 2 hours. Physiological saline containing a specified amount of a test compound (and 1 mM of sodium hydrogencarbonate) was subcutaneously given to one group of mice in a volume of 1 ml/10 g. (The same dose of saline only was given to a control group). […] The test was carried out in soundproof compartments.\n0: All the four legs are on the floor.\n2: At least three legs are on rods.\nThe other compounds were tested in the same manner as above. The test was carried out in soundproof compartments. Student's t-test was resorted to for satistical treatment."}}, "note": "Where a SMILES comes first, the peptide text is derived from it."}
{"compound": "CSCC[C@H](NC(=O)[C@H](Cc1ccc(OS(=O)(=O)O)cc1)NC(=O)[C@@H](N)CC(=O)O)C(=O)NCC(=O)N[C@@H](Cc1c[nH]c2ccccc12)C(=O)N[C@@H](CCSC)C(=O)N[C@@H](CC(=O)O)C(=O)N[C@@H](Cc1ccccc1)C(N)=O", "note": "[CCK-8, Asp--Tyr(SO3 H)--Met--Gly--Trp--Met--Asp--Phe--NH2]", "values": [{"measurement": "Effect on yawning behavior induced by apomorphine (in words)", "setting": "[1]", "value": "is not inhibited by CCK-8"}, {"measurement": "Induction of yawning behavior (in words)", "setting": "[2]", "value": "induces no yawning behavior whatsoever"}, {"measurement": "Induction of catalepsy (side effect, in words)", "setting": "[3]", "value": "induces catalepsy"}]}
{"compound": "CSCC[C@H](NC(=O)[C@H](Cc1ccc(OS(=O)(=O)O)cc1)NC(=O)[C@H](CC(=O)O)NC(=O)CCCC(=O)O)C(=O)NCC(=O)N[C@@H](Cc1c[nH]c2ccccc12)C(=O)N[C@@H](CCSC)C(=O)N[C@@H](CC(=O)O)C(=O)N[C@@H](Cc1ccccc1)C(N)=O", "note": "[Peptide A, Glt--Asp--Tyr(SO3 H)--Met--Gly--Trp--Met--Asp--Phe--NH2]", "values": [{"measurement": "Effect on TRH-induced hyperlocomotion (in words)", "setting": "[4]", "value": "inhibit the hyperlocomotion induced by TRH"}, {"measurement": "Increase of DOPAC content in hypothalamus", "setting": "[5]", "value": "about 60%"}, {"measurement": "Influence on content of metabolite (DOPAC, HVA, 5-HIAA) in frontal cortex, limbic forebrain, and striatum", "setting": "[5]", "value": "Neither of peptide A and peptide B was found to influence"}]}
{"compound": "CSCC[C@H](NC(=O)[C@H](Cc1ccc(OS(=O)(=O)O)cc1)NC(=O)[C@H](CC(=O)O)NC(=O)[C@@H]1CCC(=O)N1)C(=O)NCC(=O)N[C@@H](Cc1c[nH]c2ccccc12)C(=O)N[C@@H](CCSC)C(=O)N[C@@H](CC(=O)O)C(=O)N[C@@H](Cc1ccccc1)C(N)=O", "note": "[Peptide B, pGlu--Asp--Tyr(SO3 H)--Met--Gly--Trp--Met--Asp--Phe--NH2]", "values": [{"measurement": "Effect on TRH-induced hyperlocomotion (in words)", "setting": "[4]", "value": "inhibit the hyperlocomotion induced by TRH"}, {"measurement": "Increase of DOPAC content in hypothalamus", "setting": "[5]", "value": "about 60%"}, {"measurement": "Influence on content of metabolite (DOPAC, HVA, 5-HIAA) in frontal cortex, limbic forebrain, and striatum", "setting": "[5]", "value": "Neither of peptide A and peptide B was found to influence"}]}
{"compound": "CSCC[C@H](NC(=O)[C@H](Cc1ccc(OS(=O)(=O)O)cc1)NC(=O)CCCC(=O)O)C(=O)NCC(=O)N[C@@H](Cc1c[nH]c2ccccc12)C(=O)N[C@@H](CCSC)C(=O)N[C@@H](CC(=O)O)C(=O)N[C@@H](Cc1ccccc1)C(N)=O", "note": "[Peptide E, Glt--Tyr(SO3 H)--Met--Gly--Trp--Met--Asp--Phe--NH2] (HELM PEPTIDE1{[O=C(O)CCCC(=O)[*:2]].[O=C([C@H](Cc1ccc(OS(=O)(=O)O)cc1)N[*:1])[*:2]].M.G.W.M.D.F.[am]}$$$$V2.0)", "values": [{"measurement": "ED50, inhibition of FR20 responding", "setting": "[6]", "value": 0.004, "unit": "mg/kg"}]}
{"compound": "Pht--Tyr(SO3 H)--Met--Gly--Trp--Met--Asp--Phe--NH2 [Peptide F]", "values": [{"measurement": "ED50, inhibition of FR20 responding", "setting": "[6]", "value": 0.0167, "unit": "mg/kg"}, {"measurement": "ED50, inhibition of methylphenidate-induced hyperlocomotion", "setting": "[7]", "value": 0.2513, "unit": "mg/kg"}, {"measurement": "Average: Mean ± S.E. (total of 7 scores), climbing behavior", "setting": "[8]; 0.1 mg/kg s.c.", "value": "7.7 ± 0.6"}, {"measurement": "Average: Mean ± S.E. (total of 7 scores), climbing behavior", "setting": "[8]; 0.3 mg/kg s.c.", "value": "8.0 ± 0.8"}, {"measurement": "Average: Mean ± S.E. (total of 7 scores), climbing behavior", "setting": "[8]; 1.0 mg/kg s.c.", "value": "6.8 ± 0.8"}]}
